Experimental data reported in publication PMC4444576, “Prospective performance evaluation of selected common virtual screening tools. Case study: Cyclooxygenase (COX) 1 and 2” (European Journal of Medicinal Chemistry, 2015).
Like-named read-outs stand apart in the source and are kept apart here.

Experiments:
[1] = biological target: T1, ram seminal vesicle COX-1 (Ovis aries, UniProt P05979); test: COX-1 inhibition assay (PGE2 EIA); type: biochemical; conditions: for inhibition at 20 µM: read-out: % inhibition at 20µM, COX-1
T1 construct: ram seminal vesicle COX-1 (1 U) (Sigma–Aldrich); purchased Sigma–Aldrich; host or cells: ram seminal vesicle (tissue of origin)
T1 sequence (P05979 25-600): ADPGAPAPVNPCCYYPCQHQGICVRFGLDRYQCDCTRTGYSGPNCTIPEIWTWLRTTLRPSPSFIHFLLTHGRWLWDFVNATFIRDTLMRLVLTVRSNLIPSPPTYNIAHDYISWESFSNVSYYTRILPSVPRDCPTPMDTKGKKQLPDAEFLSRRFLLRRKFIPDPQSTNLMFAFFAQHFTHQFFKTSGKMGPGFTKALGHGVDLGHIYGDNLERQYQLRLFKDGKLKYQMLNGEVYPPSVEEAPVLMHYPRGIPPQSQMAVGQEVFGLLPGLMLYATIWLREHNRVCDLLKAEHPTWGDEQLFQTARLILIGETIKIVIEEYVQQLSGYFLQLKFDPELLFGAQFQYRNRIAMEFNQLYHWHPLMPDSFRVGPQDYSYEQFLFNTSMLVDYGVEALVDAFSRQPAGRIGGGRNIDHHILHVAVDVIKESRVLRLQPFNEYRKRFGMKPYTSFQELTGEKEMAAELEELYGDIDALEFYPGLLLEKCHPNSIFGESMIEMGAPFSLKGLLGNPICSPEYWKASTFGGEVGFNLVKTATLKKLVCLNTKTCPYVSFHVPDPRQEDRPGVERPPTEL

[2] = biological target: T2, human recombinant COX-2 (Homo sapiens, UniProt P35354); test: COX-2 inhibition assay (PGE2 EIA); type: biochemical; conditions: for inhibition at 20 µM: read-out: % inhibition at 20µM, COX-2
T2 construct: purchased Sigma–Aldrich
T2 sequence (P35354 18-604): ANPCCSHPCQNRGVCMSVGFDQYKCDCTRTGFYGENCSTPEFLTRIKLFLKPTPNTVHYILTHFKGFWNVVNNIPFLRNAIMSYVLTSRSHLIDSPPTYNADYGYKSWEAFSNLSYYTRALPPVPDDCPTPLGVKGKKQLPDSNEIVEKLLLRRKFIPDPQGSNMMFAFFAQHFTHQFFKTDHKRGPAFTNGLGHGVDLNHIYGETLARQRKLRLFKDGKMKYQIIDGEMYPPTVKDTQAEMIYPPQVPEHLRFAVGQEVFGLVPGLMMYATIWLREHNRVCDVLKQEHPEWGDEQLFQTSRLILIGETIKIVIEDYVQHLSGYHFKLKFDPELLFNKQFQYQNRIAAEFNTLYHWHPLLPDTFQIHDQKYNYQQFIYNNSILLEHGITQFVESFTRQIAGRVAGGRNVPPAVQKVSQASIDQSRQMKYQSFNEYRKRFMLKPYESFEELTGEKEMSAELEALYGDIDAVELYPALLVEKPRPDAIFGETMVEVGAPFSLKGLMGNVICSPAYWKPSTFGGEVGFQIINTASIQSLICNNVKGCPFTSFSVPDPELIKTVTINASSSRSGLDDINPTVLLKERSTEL

[3] = system: COX; test: Biological testing for COX-inhibiting activity, overall outcome on both isoforms; type: biochemical; conditions: for COX isoform selectivity: COX-1 versus COX-2
[4] = system: COX; conditions: cited from earlier work; for Activity: data from the literature
[5] = biological testing of this study

Row | SMILES | inhibition at 20 µM ([1]; triplicates) | inhibition at 20 µM ([2]; 20 µM, triplicates) | Activity [3, 5] | further results
1 | O=C(O)c1ccc(Cl)c(Cl)c1 [3,4-dichlorobenzoic acid] | -1.8 ± 14.3% | 0.1 ± 3.3% | Inactive | –
2 | C#C[C@]1(O)CC[C@H]2[C@@H]3CCc4cc(OC)ccc4[C@H]3CC[C@@]21C [17α-ethinylestradiol-3-methylether] | – | – | – | % inhibition at 20µM, COX-1 ([1]; triplicates): 2.6 ± 11.9%; % inhibition at 20µM, COX-2 [2]: -10.9 ± 31.4%; Activity [3]: Inactive
3 | C#C[C@]1(O)CC[C@H]2[C@@H]3CCc4cc(O)ccc4[C@H]3CC[C@@]21C [17α-ethinylestradiol] | 0.4 ± 16.7% | -5.2 ± 11.6% | Inactive | –
4 | CC(C)Cc1ccc([C@H](C)C(=O)O)cc1 [(S)-ibuprofen] | – | – | – | Activity [4]: Active [61]
5 | O=S(=O)([O-])c1ccc(N=Nc2ccc(O)cc2O)cc1.[Na+] [Acid orange 6] | – | – | Inactive | % inhibition at 20µM, COX-1 ([1]; triplicates): -1.2 ± 6.0%; % inhibition at 20µM, COX-2 ([2]; 20 µM, triplicates): -0.1 ± 5.6%
6 | C=CCOc1ccc(CC(=O)O)cc1Cl [Alclofenac] | – | – | – | Activity [4]: Active [40]
7 | NS(=O)(=O)c1cc(-c2nnn[nH]2)c(NCc2cccs2)cc1Cl [Azosemide] | -9.9 ± 25.6% | -1.1 ± 4.7% | Inactive | –
8 | O=S(=O)([O-])CCNc1ccc(S(=O)(=O)c2ccc(NCCS(=O)(=O)[O-])cc2)cc1.[Na+].[Na+] [Baludon] | – | – | Inactive | % inhibition at 20µM, COX-1 ([1]; triplicates): -8.4 ± 8.7%; % inhibition at 20µM, COX-2 ([2]; 20 µM, triplicates): -3.7 ± 15.4%
9 | NS(=O)(=O)c1cc2c(cc1Cl)N=C(CSCc1ccccc1)NS2(=O)=O [Benzothiazide] | 16.6 ± 18.6% | -7.4 ± 25.8% | Inactive | –
10 | COc1ccc2cc3[n+](cc2c1OC)CCc1cc2c(cc1-3)OCO2 [Berberin] | – | – | – | Activity [4]: Inactive [50]; Activity ([4]; listed as Berberine): not by direct inhibition of the enzyme
11 | CC(C)NCC(O)COc1ccc(COCCOC(C)C)cc1 (stereo not shown) [Bisoprolol] | -1.4 ± 7.7% | 10.2 ± 7% | Inactive | –
12 | CC(C(=O)O)c1ccc2c(c1)[nH]c1ccc(Cl)cc12 (stereo not shown) [Carprofen] | – | – | – | Activity [4]: Active [51]
13 | O=C(N[C@H](CO)[C@H](O)c1ccc([N+](=O)[O-])cc1)C(Cl)Cl [Chloramphenicol] | -1.7 ± 9.5% | 10.7 ± 10.7% | Inactive | –
14 | CC(C)(Oc1ccc(Cl)cc1)C(=O)O [Clofibric acid] | 36.4 ± 17.4% | 7.1 ± 18.7% | Inactive | –
15 | C/C=C(/C(=C/C)c1ccc(OC(C)=O)cc1)c1ccc(OC(C)=O)cc1 [Dienestrol diacetate (5), Dienestrol diacetate] | – | – | Active | IC50 ([1]; average of at least two independent experiments, triplicates, read-out: IC50 COX-1): 4.2 ± 1.5 µM; IC50 ([2]; average of at least two independent experiments, triplicates, read-out: IC50 COX-2): 2 ± 0.9 µM; COX isoform selectivity [3]: unselective COX-inhibitor; COX isoform selectivity ([3]; listed as dienestrol diactetate (5)): inhibited both isoforms
16 | COCCCN1CCN(c2ccccc2OC)CC1 [Dimetholizine] | -15.1 ± 23.4% | -8.7 ± 8.2% | Inactive | –
17 | O=C(O)CCC(=O)c1ccc(-c2ccccc2)cc1 [Fenbufen] | – | – | – | Activity [4]: Active [52]
18 | Cc1c(Nc2ncccc2C(=O)O)cccc1C(F)(F)F [Flunixin meglumine] | – | – | – | Activity [4]: Active [53]
19 | CC/C(=C(/CC)c1ccc(OP(=O)(O)O)cc1)c1ccc(OP(=O)(O)O)cc1 [Fosfestrol] | 29.1 ± 9.7% | 26 ± 5% | Inactive | –
20 | NS(=O)(=O)c1cc(C(=O)O)c(NCc2ccco2)cc1Cl [Furosemid] | – | – | – | % inhibition at 20µM, COX-1 ([1]; triplicates): -1.07 ± 17.3%; % inhibition at 20µM, COX-2 [2]: 8.7 ± 8.9%; Activity [3]: Inactive
21 | O=C(OCC(O)CO)c1ccccc1Nc1ccnc2cc(Cl)ccc12 (stereo not shown) [Glafenine] | 3.7 ± 34.6% | 3.5 ± 6% | Inactive | –
22 | COc1ccc2c(c1)c(CC(=O)O)c(C)n2C(=O)c1ccc(Cl)cc1 [Indometacin] | – | – | – | Activity [4]: Active [54]

Row | SMILES | inhibition at 20 µM ([1]; triplicates) | inhibition at 20 µM ([2]; 20 µM, triplicates) | Activity [3, 5] | further results
23 | CC(C(=O)O)c1ccc(N2Cc3ccccc3C2=O)cc1 (stereo not shown) [Indoprofen] | – | – | – | Activity [4]: Active [55]
24 | CC(C(=O)O)c1cccc(C(=O)c2ccccc2)c1 (stereo not shown) [Ketoprofen] | – | – | – | Activity [4]: Active [56]
25 | N[C@@H](Cc1cc(I)c(Oc2cc(I)c(O)c(I)c2)c(I)c1)C(=O)O [Levothyroxin] | 12.9 ± 10.3% | 14.9 ± 18.3% | Inactive | –
26 | Cc1ccc(Cl)c(Nc2ccccc2C(=O)O)c1Cl [Meclofenamic acid] | – | – | – | Activity [4]: Active [57]
27 | Cc1cccc(Nc2ccccc2C(=O)O)c1C [Mefenamic acid] | – | – | – | Activity [4]: Active [58]
28 | C#C[C@]1(O)CC[C@H]2[C@@H]3CCC4=C(CCC(=O)C4)[C@H]3CC[C@@]21C [Norethynodrel] | 21 ± 10.9% | -11.6 ± 32.2% | Inactive | –
29 | CC(=O)Oc1ccc(C2(c3ccc(OC(C)=O)cc3)C(=O)Nc3ccccc32)cc1 [Oxyphenisatin acetate] | -3.2 ± 27.9% | -1.8 ± 11.1% | Inactive | –
30 | CNC(=O)Oc1ccc(-c2ccccc2)cc1 [Paxamate (4), Paxamate] | – | – | Active | IC50 [1]: 17.1 ± 3.1 µM; IC50 [2]: > 20 µM; COX isoform selectivity [3]: COX-1 selective
31 | O=S(=O)(O)Oc1ccc(C(c2ccc(OS(=O)(=O)O)cc2)c2ccccn2)cc1 [Picosulfate sodium] | 8.3 ± 21% | -11 ± 29.4% | Inactive | –
32 | CC(C(=O)O)c1ccc(N2CC=CC2)c(Cl)c1 (stereo not shown) [Pirprofen] | – | – | – | Activity [4]: Active [59]
33 | COC(=O)c1ccccc1C(=O)c1ccc(OCCN2CCCCC2)cc1 [Pitofenone] | -4.7 ± 16.2% | 14.1 ± 18.4% | Inactive | –
34 | CNC(=C[N+](=O)[O-])NCCSCc1ccc(CN(C)C)o1 [Ranitidine] | -11 ± 9.6% | 12.7 ± 5.1% | Inactive | –
35 | CC(C)(Oc1ccc(Cl)cc1)C(=O)OCCCOC(=O)c1cccnc1 [Ronifibrate] | – | – | Inactive | % inhibition at 20µM, COX-1 ([1]; triplicates): 28.2 ± 11.6%; % inhibition at 20µM, COX-2 ([2]; 20 µM, triplicates): 33.0 ± 5.7%
36 | O=C(O)c1cc(/N=N/c2ccc(S(=O)(=O)Nc3ccccn3)cc2)ccc1O [Sulfasalazin] | – | – | – | COX-inhibition ([4]; no IC50 available): Evidence for COX-inhibition
37 | O=S(O)CNc1ccc(S(=O)(=O)c2ccc(NCS(=O)O)cc2)cc1 [Sulfoxone] | -2.1 ± 16.4% | -0.7 ± 6.4% | Inactive | –
38 | NS(=O)(=O)c1ccc(N2CCCCS2(=O)=O)cc1 [Sulthiame] | 3.7 ± 9.3% | -0.9 ± 13.6% | Inactive | –
39 | Cc1ncc(C[n+]2csc(CCO)c2C)c(N)n1 [Thiamine monochloride] | 13.8 ± 15.6% | -3.2 ± 6.9% | Inactive | –
40 | CC(C(=O)O)c1ccc(C(=O)c2ccccc2)s1 (stereo not shown) [Tiaprofenic acid] | – | – | – | Activity [4]: Active [55]
41 | O=C(O)COc1ccc(C(=O)c2cccs2)c(Cl)c1Cl [Ticrynafen] | -6.2 ± 6.1% | 18.4 ± 6.1% | Inactive | –
42 | [Cl-].c1ccc(-c2nn(-c3ccccc3)[n+](-c3ccccc3)n2)cc1 [Triphenyltetrazol] | – | – | Inactive | % inhibition at 20µM, COX-1 ([1]; triplicates): 13.6 ± 14.4%; % inhibition at 20µM, COX-2 ([2]; 20 µM, triplicates): 2.9 ± 7.3%
43 | COc1ccc(C(Cl)=C(c2ccc(OC)cc2)c2ccc(OC)cc2)cc1 [chlorotrianisene] | – | – | – | COX inhibition ([4]; identified by SEA): COX-inhibitor
44 | CC(=O)Nc1ccc(-c2ccccc2)cc1 [p-phenylacetanilide] | – | – | Inactive | % inhibition at 20µM, COX-1 ([1]; triplicates): 5.8 ± 18.3%; % inhibition at 20µM, COX-2 ([2]; 20 µM, triplicates): -1.6 ± 8.3%
